Patent US7288630B2, “Potassium channel KCNQ5 and sequences encoding the same” (NeuroSearch A/S, priority 1999, dated 2007)
Blank lines part the entries; values can stand above or below the molecule they belong to.

Biological target: T1, KCNQ5 (Homo sapiens, UniProt Q9NR82)
T1 construct: A complete cDNA was assembled and cloned into the oocyte expression vector PTLN; expressed in transfected cells; host or cells: Xenopus oocytes injected with cRNA from pTLN
Experiment: Two-electrode voltage clamp of KCNQ5 homomers expressed in Xenopus oocytes
Assay type: cell-based
Description: KCNQ5 was expressed in Xenopus oocytes and its activity was investigated by two-electrode voltage clamping.
After linearization of the KCNQ5-containing pTLN vector with Hpal, capped cRNA was transcribed in vitro using the mMessage mMachine cRNA synthesis kit (Ambion). Usually 5-15 ng of cRNA were injected into Xenopus oocytes previously isolated by manual defolliculation and short collagenase treatment. In co-expression experiments cRNAs were injected at a 1:1 ratio. Oocytes were kept at 17° C. in modified Barth's solution (90 mM NaCl, 1 mM KCl, 0.41 mM CaCl2, 0.33 mM Ca(NO3)2, 0.82 mM MgSO4, 10 mM HEPES, 100 U penicillin—100 μg streptomycin/ml, pH 7.6).
Standard two-electrode voltage-clamp measurements were performed at room temperature 2-4 days after injection using a Turbotec 05 amplifier (npi instruments, Tamm, Germany) and pClamp 5.5 software (Axon Instruments). Currents were usually recorded in ND98 solution (see Table 2). Linopirdine (RBI, Natick, Mass.) was prepared as a 100 mM stock solution in DMSO and added to a final concentration of 200 μM to ND98.
To determine the voltage dependence of apparent open probability, oocytes were clamped for 2 seconds to values between −80 mV to +40 mV, in 10 mV steps, followed by a constant −30 mV test pulse. Tail currents extrapolated to t=0 were obtained from a mono-exponential fit, normalised to the value at 0 mV and used for the analysis of apparent popen. Data analysis used PClamp6 and Microcal Origin 5.0.

T1 sequence (Q9NR82 36-932): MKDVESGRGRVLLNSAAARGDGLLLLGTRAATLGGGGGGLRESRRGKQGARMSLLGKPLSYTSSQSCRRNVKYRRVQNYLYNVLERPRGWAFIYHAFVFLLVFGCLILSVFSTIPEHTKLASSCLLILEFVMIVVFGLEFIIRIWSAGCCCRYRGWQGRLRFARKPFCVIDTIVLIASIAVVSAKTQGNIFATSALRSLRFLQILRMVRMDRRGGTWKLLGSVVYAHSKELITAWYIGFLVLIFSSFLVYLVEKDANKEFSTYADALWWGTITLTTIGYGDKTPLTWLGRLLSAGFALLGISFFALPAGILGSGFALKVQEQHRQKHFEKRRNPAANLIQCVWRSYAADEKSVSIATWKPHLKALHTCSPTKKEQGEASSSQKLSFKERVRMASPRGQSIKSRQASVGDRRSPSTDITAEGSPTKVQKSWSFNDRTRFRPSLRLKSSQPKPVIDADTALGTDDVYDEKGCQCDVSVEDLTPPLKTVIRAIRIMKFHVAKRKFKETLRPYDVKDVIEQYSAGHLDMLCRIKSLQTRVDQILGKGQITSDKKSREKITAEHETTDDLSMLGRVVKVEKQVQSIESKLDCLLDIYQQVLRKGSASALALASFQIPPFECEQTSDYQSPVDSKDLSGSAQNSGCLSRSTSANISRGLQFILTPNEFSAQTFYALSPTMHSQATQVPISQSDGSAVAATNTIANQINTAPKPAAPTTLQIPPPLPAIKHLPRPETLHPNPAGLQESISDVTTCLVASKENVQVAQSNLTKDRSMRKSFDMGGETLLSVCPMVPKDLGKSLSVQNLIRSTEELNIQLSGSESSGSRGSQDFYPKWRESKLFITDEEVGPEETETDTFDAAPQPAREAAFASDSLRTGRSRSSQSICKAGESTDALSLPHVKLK

Structure (SMILES): [Ba+2] [Ba^++]
- inhibition of KCNQ5 currents (5 mM): more than 80%

- shift of voltage dependence of apparent popen towards negative potentials (500 μM niflumic acid (FIG. 5B)): about 20 mV
Structure (SMILES): O=C(O)c1cccnc1Nc1cccc(C(F)(F)F)c1 [Niflumic acid, niflumic acid]

- IC50 (extracellular application, Xenopus oocytes, from fit curves (FIG. 5A), read-out: IC50, inhibition of KCNQ5 homomers): 65 ± 4 µM
Structure (SMILES): O=C1c2ccccc2C(Cc2ccncc2)(Cc2ccncc2)c2ccccc21 [XE991, 10,10-bis-(4-pyridinyl-methyl)-9-(10H)-antracenone]
